{"source": "patent US20040224995A1", "about": "(University of North Texas Health Science Center at Fort …, priority 2003, published 2004)", "key": {"HT-22 cells": {"system": "HT-22 cells", "assay": "HT-22 cell viability during glutamate exposure (calcein AM assay)", "assay_type": "cell-based", "details": "for neuroprotection after withdrawal of compound-containing medium: 24 h preincubation, medium washed away, then glutamate (15 mM); for concentration at which toxicity was observed: HT-22, glutamate experiments; for neuroprotection against glutamate insult (cell viability): HT-22, 24 h preincubation before glutamate", "description": "Although not wanting to be bound by theory, the toxicity of glutamate in HT-22 (32) and C6 glioma (33) cell lines is mediated through oxidative stress. HT-22 cells lack ionotropic N-methyl-D-aspartate (“NMDA”) glutamate receptors, and the glutamate-induced cell death appears to occur via a slow onset oxidative stress (32,34,35). Glutamate blocks cystine uptake by inhibiting the glutamate/cystine antiporter in both HT-22 (32) and C6 glioma (33) cell lines. Since cysteine is required for glutathione (“GSH”) synthesis, the intracellular concentration of GSH decreases as a consequence. BSO depletes intracellular glutathione by inhibiting γ-glutamylcysteine synthetase, the rate-limiting enzyme in glutathione synthesis (33). […] Troglitazone further protected HT-22 (FIG. 14) and RGC-5 (FIG. 15) against BSO. The cell viability was taken at time points around about 14 to 24 hours post-insult time. In some of the experiments, the viability of cells was determined using 2.5 μM calcein AM assay in phosphate-buffered saline (PBS 1×). After 25 minutes of incubation, live cells were distinguished by the presence of intracellular esterase activity, which cleaves the calcein AM dye, producing a bright green fluorescence, as shown in FIG. 22. Viability was measured in Relative Fluorescent Units (“RFU”), and expressed as percentage of vehicle-treated control values.\n15d-PGJ2 and two TZD's (e.g. troglitazone and ciglitazone) were tested for their ability to protect HT-22 cells against glutamate toxicity. […] HT-22 cells were treated with 15-dPGJ2 twenty-four hours prior to a glutamate insult (15 mM). […] The data of FIG. 24 was quantified using the calcein AM assay (see FIG. 22). Results are expressed in % survival of the control (non-glutamate-treated) cultures. DMSO received the vehicle only for 15d-PGJ2. Shown are mean±SEM for 6. The asterisk (“*”) indicates p<0.05 vs. respective control.\nIn order to conduct these experiments, the following compounds: PGA1; PGA2; PGJ2; Δ^12PGJ2; and 15d-PGJ2 were ordered from Biomol, Plymouth Meeting, Pa. HT-22, an immortalized mouse hippocampal cell line, C6 rat glioma, RGC-5 retinal ganglion cells were used. Cells were grown to confluence in DMEM media, and supplemented with 10% charcoal/dextran-treated fetal bovine serum (“FBS”), and […] gentamycin at 37° C. under 95% air, 5% CO2. HT-22, C6, and RGC-5 cells were plated at a density of 50,000, 35,000, and 10,000 cells/ml, respectively, in 96-well plates. Wells were pre-treated with cyclopentenone PGs at various times prior to being subjected to glutamate, hydrogen peroxide (H2O2), or BSO insults.\nThe WY-14643, Ciglitazone, Troglitazone, 9-cis retinoic acid, and 15d-PGJ2 compounds were purchased from Biomol (Plymouth Meeting, Pa.). L-165041 and L-783483 were kindly provided by Merck Laboratories. The cell lines used were HT-22, an immortalized mouse hippocampal cell line, and SK—N—SH, a human neuroblastoma cell line. The HT-22 cells were obtained from David Schubert (Salk Institute, San Diego, Calif.). The HT-22 line was originally selected from HT-4 cells based on glutamate sensitivity. HT-4 cells were immortalized from primary hippocampal neurons using a temperature-sensitive SV-40 T antigen (Morimoto and Koshland, 1990). SK—N—SH were obtained from ATCC (Manassas, Va.). HT-22 and SK—N—SH cells were grown to confluence in DMEM and RPMI-1640 media, respectively, and supplemented with 10% charcoal/dextran-treated fetal bovine serum (FBS), and 5 mg/ml gentamycin at 37° C. under 95% air, 5% CO2. HT-22 cells were plated at a density of 50,000 cells/ml (5,000 cells/well), and SK—N—SH were plated at a density of 120,000 to 150,000 cells/ml (12,000 to 15,000 cells/well) in 96-well plates. In most studies, wells were pre-treated with PPAR ligands over a wide dose range at various times prior to being subjected to either glutamate, hydrogen peroxide (H2O2), or serum deprivation insults. In some studies, the insults were applied prior to the addition of the PPAR ligand. […]"}, "PPARγ": {"system": "PPARγ", "details": "Kliewer et al., 1995; cited from earlier work"}, "SK—N—SH cells": {"system": "SK—N—SH cells", "assay": "SK-N-SH H2O2 and serum deprivation insults", "assay_type": "cell-based, human", "experimental": "Additionally, the effects of pretreatment with PPARγ agonists on H2O2 and serum deprivation toxicities were studied in SK—N—SH cells. After showing that protection in HT-22 cells was insult-type specific, we investigated whether it was also cell-type specific. We used SK—N—SH, a human neuroblastoma cell lines, and tested whether 15d-PGJ2 and troglitazone would protect SK—N—SH against H2O2 and serum deprivation insults. […] Higher concentrations (>10 μM and >20 μM) of 15dPGJ2 and troglitazone, respectively, were toxic to SK—N—SH cells.\nThe WY-14643, Ciglitazone, Troglitazone, 9-cis retinoic acid, and 15d-PGJ2 compounds were purchased from Biomol (Plymouth Meeting, Pa.). L-165041 and L-783483 were kindly provided by Merck Laboratories. The cell lines used were HT-22, an immortalized mouse hippocampal cell line, and SK—N—SH, a human neuroblastoma cell line. The HT-22 cells were obtained from David Schubert (Salk Institute, San Diego, Calif.). The HT-22 line was originally selected from HT-4 cells based on glutamate sensitivity. HT-4 cells were immortalized from primary hippocampal neurons using a temperature-sensitive SV-40 T antigen (Morimoto and Koshland, 1990). SK—N—SH were obtained from ATCC (Manassas, Va.). HT-22 and SK—N—SH cells were grown to confluence in DMEM and RPMI-1640 media, respectively, and supplemented with 10% charcoal/dextran-treated fetal bovine serum (FBS), and 5 mg/ml gentamycin at 37° C. under 95% air, 5% CO2. HT-22 cells were plated at a density of 50,000 cells/ml (5,000 cells/well), and SK—N—SH were plated at a density of 120,000 to 150,000 cells/ml (12,000 to 15,000 cells/well) in 96-well plates. In most studies, wells were pre-treated with PPAR ligands over a wide dose range at various times prior to being subjected to either glutamate, hydrogen peroxide (H2O2), or serum deprivation insults. In some studies, the insults were applied prior to the addition of the PPAR ligand.\nThe cell viability assays were conducted about 14 to 24 hours post-insult time, viability of cells was determined using 2.5 μM Calcein AM assay in phosphate-buffered saline (PBS). After 25 minutes of incubation, live cells were distinguished by the presence of intracellular esterase activity, which cleaves the calcein AM dye, producing a bright green fluorescence. Viability was measured in Relative Fluorescent Units (“RFU”), and expressed as percentage of vehicle-treated control values. The calcein assay was designed to produce results that accurately reflect viable cell numbers. At cell concentrations below 10,000 cells per well (96-well plate) a linear relationship between RFU and cell number is achieved (r^2=0.9997, data not shown)."}}, "data": [{"smiles": "CCCCC/C=C/C=C1/C(=O)C=C[C@@H]1C/C=C\\CCCC(=O)O", "note": "[15d-PGJ2, 15-deoxy-Δ^12,14-PGJ2]", "values": [{"measurement": "neuroprotection after withdrawal of compound-containing medium", "setting": "HT-22 cells", "result": "protected in a dose dependent manner"}, {"measurement": "concentration at which toxicity was observed", "setting": "HT-22 cells", "result": "≥ 10", "unit": "µM"}, {"measurement": "neuroprotection against glutamate insult (cell viability)", "setting": "HT-22 cells", "result": "dose-dependent protection"}, {"measurement": "neuroprotective effect of prostaglandins against glutamate toxicity", "setting": "HT-22 cells; added 24 h before glutamate (15 mM), viability 15 h later", "result": "potent neuroprotective effect"}, {"measurement": "neuroprotection when added with or after glutamate", "setting": "HT-22 cells; added at same time as glutamate or up to ten hours thereafter", "result": "failed to display any neuroprotective effects"}, {"measurement": "exposure time required to achieve significant neuroprotection", "setting": "HT-22 cells; preincubation before glutamate (15 mM), 5 μM", "result": "four to six"}, {"measurement": "EC50", "setting": "PPARγ", "result": 7, "unit": "µM"}, {"measurement": "concentrations toxic to SK-N-SH cells", "setting": "SK—N—SH cells", "result": "> 10", "unit": "µM"}, {"measurement": "protection against H2O2 and serum deprivation insults", "setting": "SK—N—SH cells", "result": "Neither of the compounds protected"}]}, {"smiles": "Cc1c(C)c2c(c(C)c1O)CCC(C)(COc1ccc(CC3SC(=O)NC3=O)cc1)O2", "note": "(centres unmarked) [troglitazone]", "values": [{"measurement": "neuroprotection after withdrawal of compound-containing medium", "setting": "HT-22 cells", "result": "loss of neuroprotection"}, {"measurement": "concentration at which toxicity was observed", "setting": "HT-22 cells", "result": "≥ 20", "unit": "µM"}, {"measurement": "neuroprotection against glutamate insult (cell viability)", "setting": "HT-22 cells", "result": "dose-dependent protection"}, {"measurement": "protection versus time of administration prior to glutamate insult", "setting": "HT-22 cells; administered 0 to 10 hours prior to insult", "result": "equally protective"}, {"measurement": "time post glutamate insult up to which neuroprotective effects remained unaltered", "setting": "HT-22 cells; post-treatment 0 to 10 hours after glutamate", "result": "up to 6 hours"}, {"measurement": "protection at 8 and 10 hours post glutamate insult", "setting": "HT-22 cells; post-treatment, extent of protection decreased", "result": "still significantly protected"}, {"measurement": "concentrations toxic to SK-N-SH cells", "setting": "SK—N—SH cells", "result": "> 20", "unit": "µM"}, {"measurement": "protection against H2O2 and serum deprivation insults", "setting": "SK—N—SH cells", "result": "Neither of the compounds protected"}]}]}
